5 compounds from ChEMBL document CHEMBL1151088 (1996) can be followed below.

Converted amounts (≈) assume the structure as drawn.

Type in all cases: functional
The subject of assay [1] is Staphylococcus aureus. The assay is described as follows: In vitro antimicrobial activity against methicillin resistant Staphylococcus aureus 1131.
The subject of assay [2] is Staphylococcus aureus. Description: In vitro antimicrobial activity against penicillin resistant Staphylococcus aureus 853.
The subject of assay [3] is Staphylococcus aureus. The assay is described as follows: In vitro antimicrobial activity against penicillin sensitive Staphylococcus aureus 663.
Assay [4] concerns Staphylococcus epidermidis. The assay is described as follows: In vitro antimicrobial activity against Staphylococcus epidermidis.
Another assay deals with Acholeplasma laidlawii. Description: In vitro antimicrobial activity against Acholeplasma laidlawii.
A further assay relates to Bacillus cereus. Description: In vitro antimicrobial activity against Bacillus cereus.
The test system of the next assay is Candida albicans. Description: In vitro antimicrobial activity against Candida albicans.
In a further assay the test system is Saccharomyces cerevisiae. Description: In vitro antimicrobial activity against Saccharomyces cerevisiae.
The test system of another assay is Escherichia coli. The assay is described as follows: In vitro antimicrobial activity against Escherichia coli 182+PMBN.

On to `CCCOc1c2cccc1Cc1cc3cc(c1OCCC)Cc1cccc(c1OCCC)Cc1cc(cc(c1OCCC)C2)C(=O)N[C@H](C)C(=O)NCCNCCNC(=O)[C@@H](C)NC3=O`, for which the MIC was found to be 4 µg/mL (≈ 4.49 µM) in the assay with Staphylococcus aureus [1], 8 µg/mL (≈ 8.99 µM) against Staphylococcus aureus [2], 8 µg/mL (≈ 8.99 µM) in the assay with Staphylococcus aureus [3] and 8 µg/mL (≈ 8.99 µM) in assay [4].

Take `CCCOc1c2cccc1Cc1cc3cc(c1OCCC)Cc1cccc(c1OCCC)Cc1cc(cc(c1OCCC)C2)C(=O)N[C@@H](C)C(=O)NCCN(C(=O)OC(C)(C)C)CCNC(=O)[C@H](C)NC3=O`: the MIC against Staphylococcus aureus [1] was 64 µg/mL (≈ 64.6 µM); against Staphylococcus aureus [2], greater than 64 µg/mL; against Staphylococcus aureus [3], 64 µg/mL (≈ 64.6 µM); in [4], 32 µg/mL (≈ 32.3 µM).

As to `CN[C@H](CC(C)C)C(=O)N[C@H]1C(=O)N[C@@H](CC(N)=O)C(=O)N[C@H]2C(=O)N[C@H]3C(=O)N[C@H](C(=O)N[C@H](C(=O)O)c4cc(O)cc(O)c4-c4cc3ccc4O)[C@H](O)c3ccc(c(Cl)c3)Oc3cc2cc(c3O[C@@H]2O[C@H](CO)[C@@H](O)[C@H](O)[C@H]2O[C@H]2C[C@](C)(N)[C@H](O)[C@H](C)O2)Oc2ccc(cc2Cl)[C@H]1O` [VANCOMYCIN], the MIC in the assay with Acholeplasma laidlawii is greater than 128 µg/mL; against Bacillus cereus it was 2 µg/mL (≈ 1.38 µM); with Candida albicans, greater than 128 µg/mL; in the assay on Saccharomyces cerevisiae, greater than 128 µg/mL.

Regarding `CCCOc1c2cccc1Cc1cc3cc(c1OCCC)Cc1cccc(c1OCCC)Cc1cc(cc(c1OCCC)C2)C(=O)N[C@@H](C)C(=O)N[C@@H](C)C(=O)NCCNCCNC(=O)[C@H](C)NC(=O)[C@@H](C)NC3=O` [VANCOMYCIN MIMIC], the MIC (in the assay with Staphylococcus aureus [1]; in the assay with Staphylococcus aureus [2]; against Staphylococcus aureus [3]; in [4]) was 32 µg/mL (≈ 31 µM) in each case.

`CCCOc1c2cccc1Cc1cc3cc(c1OCCC)Cc1cccc(c1OCCC)Cc1cc(cc(c1OCCC)C2)C(=O)N[C@@H](C)C(=O)NCCNCCNC(=O)[C@H](C)NC3=O`: the minimum inhibitory concentration (MIC) is greater than 128 µg/mL in the assay on Acholeplasma laidlawii; 16 µg/mL (≈ 18 µM) against Bacillus cereus; greater than 128 µg/mL with Candida albicans; 32 µg/mL (≈ 35.9 µM) against Escherichia coli; 4 µg/mL (≈ 4.49 µM) with Staphylococcus aureus [1]; 16 µg/mL (≈ 18 µM) with Staphylococcus aureus [2]. The figures for the MIC (in the assay on Staphylococcus aureus [3]; in assay [4]; against Saccharomyces cerevisiae) were 8 µg/mL (≈ 8.99 µM), 4 µg/mL (≈ 4.49 µM) and greater than 128 µg/mL, respectively.

As a reminder, the MIC is the lowest concentration that inhibits growth of the organism. A lower MIC goes with greater potency.
